The record followed here is EP1277738B1, “CONDENSED HETEROARYL DERIVATIVES” (Astellas Pharma Inc., priority 2000, dated 2001).

The test system of one experiment is A375 cells. Nature of the experiment: Melanoma cell growth inhibition (Alamar Blue). It is filed as cell-based. To be noted: Homo sapiens. As for the experimental part:
A375 cells from a melanoma cell line were cultured in DMEM medium (GIBCO) supplemented with 10% fetal bovine serum. A375 cells at 10,000 cells/100µl were added to a 96 well plate which contained 1µl/well of the test compounds (final concentration of 0.001 - 30µM). After incubation for over 46 hours, Alamar Blue reagent was added to the medium (10µl/well).
In general terms: Alamar Blue is a resazurin reagent that responds to reducing activity.

Another experiment concerns the target PI3K (p110α subtype) (Bos taurus, UniProt P32871). Nature of the experiment: Inhibition of PI3K (p110α subtype). It is filed as biochemical. To be noted: bovine p110α from baculovirus expression system; PI substrate, [γ-32P] ATP, 37°C for 15 minutes. As for the experimental part: Test Example 1 Inhibition of PI3K (p110α subtype)
Inhibition was determined using enzyme (bovine p110α) prepared in the baculovirus expression system. Bovine p110 was prepared according to a modification from the method by I. Hiles et al., Cell, 70, 419 (1992). Each compound to be assayed was dissolved in DMSO and the obtained 10 mM DMSO solution was serially diluted with DMSO.
The compound (0.5µl) to be assayed and enzyme were mixed in 25µl of buffer solution (40 mM Tris-HCl (pH 7.4), 200 mM NaCl, 2 mM dithiothreitol, 5 mM MgCl2). Then, 25µl of 5 mM Tris-HCl (pH 7.4) buffered solution supplemented with 10µg PI (Sigma), 2µ Ci [γ-^32P] ATP (Amersham Pharmacia) and 80µM nonradiolabeled ATP (Sigma) was added to the mixture to initiate the reaction. After reacting at 37°C for 15 minutes, 200µl of 1M HCl and 400µl of CHCl3 / MeOH (1 : 1) were added to the reaction mixture. The resulting mixture was stirred and then centrifuged. After the organic layer was again extracted twice with 150µl of MeOH / 1M HCl (1 : 1). The radioactivity was measured using Cerenkov light.

The test system of another experiment is HCT116 cells. Nature of the experiment: Colon cancer cell growth inhibition (Alamar Blue). The conditions noted are these: HCT116 colon cancer cell line, incubation over 72 hours; result in words. It is filed as cell-based. On the procedure: Test Example 2 Colon cancer cell growth inhibition
HCT116 cells from a colon cancer cell line were cultured in McCoy's 5A medium (GIBCO) supplemented with 10% fetal bovine serum. HCT116 cells were inoculated on a 96 well plate (5000 cells/well) followed by overnight incubation. The test compound diluted with the medium was added to the medium in a final concentration of […] (final DMSO concentration, 1%). After incubation over 72 hours, Alamar Blue reagent was added to the medium. Two hours after the addition, a ratio of fluorescent intensity at an excitation wavelength of 530 nm to that at an emission wavelength of 590 nm was measured to determine the IC50. Co 14, Co 24, Co 25, Co 31, Co 46 and Co 47 of the present invention exerted an excellent cancer cell growth inhibition activity.

[1] abbreviates: A-375, A375 melanoma cell line, incubation for over 46 hours, 0.001 - 30µM, range is stated for the group of ten compounds, read-out: IC50.

pIC50: −log10 of the molar value. Where two headings read alike, the source gives them in different places.

Chain of PI3K (p110α subtype) (P32871 whole entry): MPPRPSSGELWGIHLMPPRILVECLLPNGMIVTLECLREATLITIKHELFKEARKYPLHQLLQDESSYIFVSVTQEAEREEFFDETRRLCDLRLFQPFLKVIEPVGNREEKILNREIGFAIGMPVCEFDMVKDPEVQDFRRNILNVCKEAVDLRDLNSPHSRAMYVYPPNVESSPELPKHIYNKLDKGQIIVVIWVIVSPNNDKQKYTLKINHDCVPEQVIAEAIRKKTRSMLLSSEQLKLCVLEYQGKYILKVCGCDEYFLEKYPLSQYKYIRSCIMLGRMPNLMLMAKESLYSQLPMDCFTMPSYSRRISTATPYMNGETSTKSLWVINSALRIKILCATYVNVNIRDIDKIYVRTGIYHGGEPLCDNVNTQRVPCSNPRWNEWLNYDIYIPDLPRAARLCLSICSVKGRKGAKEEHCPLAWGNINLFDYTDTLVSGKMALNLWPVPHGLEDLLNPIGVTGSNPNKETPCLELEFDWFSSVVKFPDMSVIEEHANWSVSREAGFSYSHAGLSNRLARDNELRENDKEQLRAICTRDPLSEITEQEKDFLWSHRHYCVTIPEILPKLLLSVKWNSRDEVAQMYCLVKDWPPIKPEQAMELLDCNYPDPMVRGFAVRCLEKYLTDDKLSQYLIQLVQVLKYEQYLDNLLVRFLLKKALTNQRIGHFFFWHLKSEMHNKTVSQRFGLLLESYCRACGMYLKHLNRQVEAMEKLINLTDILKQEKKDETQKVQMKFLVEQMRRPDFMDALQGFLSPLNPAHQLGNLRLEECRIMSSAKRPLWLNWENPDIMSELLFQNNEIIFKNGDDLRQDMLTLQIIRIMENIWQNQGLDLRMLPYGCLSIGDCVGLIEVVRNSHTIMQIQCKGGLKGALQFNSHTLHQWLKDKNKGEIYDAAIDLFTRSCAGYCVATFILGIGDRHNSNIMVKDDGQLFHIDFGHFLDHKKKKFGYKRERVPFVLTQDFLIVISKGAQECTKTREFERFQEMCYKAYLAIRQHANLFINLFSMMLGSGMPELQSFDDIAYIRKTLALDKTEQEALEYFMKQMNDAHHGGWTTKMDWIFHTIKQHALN

A word on the pIC50: it is −log10 of the IC50, conventionally taken in molar units. Take `Oc1cccc(-c2nc(N3CCOCC3)c3oc4ncccc4c3n2)c1` [Co 50, 3-(4-morpholinopyrido[3',2':4,5]furo[3,2-d]pyrimidin-2-yl)phenol]: the pIC50 in the experiment on A375 cells (A-375, 46 h) is 5.37 to 6.48.

`Oc1cccc(-c2nc(N3CCOCC3)c3ncccc3n2)c1` [Co 172, 3-(4-morpholinopyrido[3,2-d]pyrimidin-2-yl)phenol]: in the experiment with A375 cells (setting [1]), the pIC50 was 5.37 to 6.48.

In the case of `CC(=O)Nc1cccc(-c2nc(N3CCOCC3)c3oc4ncccc4c3n2)c1` [Co 24], at PI3K (p110α subtype), the pIC50 is over 6.00. Also, the “cancer cell growth inhibition activity” value in the experiment with HCT116 cells is “excellent”.

In the case of `Oc1cccc(-c2nc(N3CCOCC3)c3nccnc3n2)c1` [Co 191, 3-(4-morpholinopteridin-2-yl)phenol], the pIC50 in the experiment on A375 cells (setting [1]) was 5.37 to 6.48.

For `O=C(Nc1cccc(-c2nc(N3CCOCC3)c3oc4ncccc4c3n2)c1)c1ccccn1` [Co 10], the pIC50 on PI3K (p110α subtype) is over 6.00.

Consider `COc1ccc2nc(-c3cccc(O)c3)nc(N3CCOCC3)c2c1` [Co 186, 3-(6-methoxy-4-morpholinoquinazolin-2-yl)phenol], for which, in the experiment on A375 cells (setting [1]), the negative-log IC50 (pIC50) was 5.37 to 6.48.

With `Oc1cccc(-c2nc(N3CCOCC3)c3cnccc3n2)c1` [Co 164, 3-(4-morpholinopyrido[4,3-d]pyrimidin-2-yl)phenol], the pIC50 in the experiment with A375 cells (setting [1]) was 5.37 to 6.48.

Take `c1cc(OCCN2CCNCC2)cc(-c2nc(N3CCOCC3)c3oc4ncccc4c3n2)c1` [Co 69, 4-morpholino-2-[3-(2-piperazin-1-ylethoxy)phenyl]pyrido[3',2':4,5]furo[3,2-d]pyrimidine]: in the experiment with A375 cells (setting [1]), the pIC50 was 5.37 to 6.48.

As for `Nc1ccc(C(=O)Nc2cccc(-c3nc(N4CCOCC4)c4oc5ncccc5c4n3)c2)cn1` [Co 17, 6-amino-3'-.(4-morpholinopyrido[3',2':4,5]furo[3,2-d]pyrimidin-2-yl)nicotinanilide], the pIC50 against PI3K (p110α subtype) is over 6.00.

Take `Nc1ccc(-c2nc(N3CCOCC3)c3oc4ncccc4c3n2)cc1` [Co 33, 4-(4-morpholinopyrido[3',2':4,5]furo[3,2-d]pyrimidin-2-yl)aniline]: the pIC50 with A375 cells (setting [1]) was 5.37 to 6.48.

As to `Oc1cccc(-c2nc(N3CCOCC3)c3ccncc3n2)c1` [Co 174, 3-(4-morpholinopyrido[3,4-d]pyrimidin-2-yl)phenol], the pIC50 with A375 cells (setting [1]) was 5.37 to 6.48.

For the compound `Oc1cccc(-c2nc(N3CCOCC3)c3sccc3n2)c1` [Co 190, 3-(4-morpholinothieno[3,2-d]pyrimidin-2-yl)phenol], in the experiment on A375 cells (setting [1]), the pIC50 was 5.37 to 6.48.
